PubChem BioAssay (NCI)
Several values for one entry are separate records, joined by “and”; a condition that tells them apart may be missing. Identical values can stand only once.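 Method: 48-hour compound exposure of cells in 96-well plates, five concentrations, linear interpolation of endpoints. GI50 = concentration required for 50% inhibition of growth. Definition used: TGI = concentration required for complete inhibition of growth.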

Legend:
Assay in all cases: inhibition of tumour cell growth, NCI panel, 48 h
[1] = tested on: SR leukemia
[2] = tested on: RPMI-8226 leukemia
[3] = tested on: HCC-2998 colon
[4] = tested on: RXF 393 renal
[5] = tested on: HOP-92 NSCLC
[6] = tested on: NCI/ADR-RES ovarian
[7] = tested on: MDA-MB-435
[8] = tested on: DU-145 prostate
[9] = tested on: 786-0 renal
[10] = tested on: MDA-MB-231 breast

Structure (SMILES)	TGI [1]	TGI [2]	TGI [3]	TGI [4]	TGI [5]	TGI [6]	TGI [7]	TGI [8]	TGI [9]	TGI [10]	GI50 [6]	GI50 [7]	GI50 [8]	GI50 [2]	GI50 [10]	GI50 [4]	GI50 [1]	GI50 [5]	GI50 [3]
CCCCCCCSc1nc2c(C(=O)OCC)ncn2c2ccccc12	> 100 µM	> 100 µM	> 100 µM	> 100 µM	> 100 µM	–	–	–	–	–	–	–	–	–	–	–	–	–	–
O=NC1C(Cl)C2CC1C1C(Br)C(Br)CC21 (stereo not given)	> 100 µM	68.6 µM	–	> 100 µM	> 100 µM	> 100 µM	> 100 µM	> 100 µM	> 100 µM	> 100 µM	–	–	–	–	–	–	–	–	–
CN1CCCCC1CCN1CCCCC1 (stereo not given)	–	> 100 µM	> 100 µM	> 100 µM	> 100 µM	> 100 µM	> 100 µM	> 100 µM	> 100 µM	> 100 µM	–	–	–	–	–	–	–	–	–
C/C=C/[P+](c1ccccc1)(c1ccccc1)c1ccccc1	2.58 µM	0.898 µM	3.82 µM	41.6 µM	6.81 µM	> 100 µM	5.97 µM	18.6 µM	37.6 µM	14.4 µM	–	–	–	–	–	–	–	–	–
Cc1sc(Cc2ccccc2)nc1-c1ccc(N)cc1	–	71.4 µM	35.5 µM	–	43.4 µM	> 100 µM	37.7 µM	–	–	84.8 µM	–	–	–	–	–	–	–	–	–
CCOC(=O)/C(Cl)=C(\C)Nc1nc2c(ccc3ccccc32)s1	77.1 µM	–	39.2 µM	–	–	> 100 µM	–	46.6 µM	–	> 100 µM	–	–	–	–	–	–	–	–	–
CN(C)CCCNc1ccc2ncn3c4ccccc4c(=O)c1c23	17.7 µM	26.9 µM	–	–	59.5 µM	–	–	–	33.2 µM	–	–	–	–	–	–	–	–	–	–
CC12CCC(C(=O)OC1=O)C(C)(C)O2 (stereo not given)	–	> 100 µM	> 100 µM	> 100 µM	> 100 µM	> 100 µM	> 100 µM	> 100 µM	–	–	–	–	–	–	–	–	–	–	–
O=S(=O)(Sc1ccc(Cl)cc1)c1ccc(Cl)cc1	45 µM	60.5 µM	40.7 µM	30.1 µM	42.1 µM	–	–	–	29.5 µM	–	–	–	–	–	–	–	–	–	–
CC(=O)C(O)N1C(=O)C=CC1=O (stereo not given)	–	35 µM and 5.64 µM	–	–	–	–	–	–	–	–	12000 µM	10700 µM	11700 µM	12.8 µM	13400 µM	13000 µM	–	–	–
Cc1cc(NCc2cc(Nc3ccnc4cc(Cl)ccc34)ccc2F)nc(N2CCCC2)n1	1.12 µM	–	–	2.99 µM	2.61 µM	–	3.01 µM	4.46 µM	–	–	–	1.61 µM	1.94 µM	–	–	1.45 µM	0.265 µM	0.763 µM	–
COc1ccc(N2C(=O)C3c4[nH]c5c(C)cccc5c4C4CCC(C(C)(C)C)CC4C3C2=O)cc1 (stereo not given)	> 10 µM	> 10 µM	7.61 µM	> 10 µM	–	> 10 µM	> 10 µM	> 10 µM	–	> 10 µM	–	–	–	–	–	–	–	–	–
N#CC(c1ccccc1)c1nc2ccc(=N)cc-2n(O)c1C(C#N)c1ccccc1 (stereo not given)	> 100 µM	–	–	> 100 µM	–	–	–	–	> 100 µM	–	–	–	–	–	–	–	–	–	–
CN(C)CCNc1nc(-c2ccc3ccccc3c2)nc2nc[nH]c12	24.7 µM	> 100 µM	10.6 µM	24.2 µM	–	22.9 µM	25 µM	23.7 µM	32.1 µM	26.5 µM	–	–	–	–	–	–	–	–	–
C[C@@H]1CC[C@H]2C(COCCOCC3=C(C(F)(F)F)O[C@@H]4O[C@@]5(C)CC[C@H]6[C@H](C)CC[C@@H]3[C@@]46OO5)=C(C(F)(F)F)O[C@@H]3O[C@@]4(C)CC[C@@H]1[C@]32OO4	> 100 µM	–	> 100 µM	> 100 µM	> 100 µM	> 100 µM	> 100 µM	> 100 µM	> 100 µM	> 15.8 µM	5.57 µM	0.0426 µM	> 100 µM	< 0.0139 µM	1.97 µM	> 100 µM	0.0116 µM	0.0679 µM	> 11.9 µM
CC1=C2C(=O)c3ccccc3C(=O)[C@H]2[C@H]2CCO[C@H]2O1	> 100 µM	70.4 µM	48.1 µM	31.3 µM	42.3 µM	67 µM	39.8 µM	47 µM	37.8 µM	51.7 µM	–	–	–	–	–	–	–	–	–
Cc1ccc(Oc2ccc(C)cc2[N+](=O)[O-])cc1	> 100 µM	> 100 µM	> 100 µM	92.7 µM	> 100 µM	–	–	–	–	–	–	–	–	–	–	–	–	–	–
O=c1oc2ccccc2c2c(=O)c3ccc(OC/C(=N/O)c4ccc(Cl)cc4)cc3oc12	8.27 µM	33.1 µM	–	8.06 µM	25.1 µM	31.4 µM	7.89 µM	36.1 µM	24.2 µM	43.2 µM	–	–	–	–	–	–	–	–	–
Cc1ccc(S(=O)(=O)NCCSCCNS(=O)(=O)c2ccc(C)cc2)cc1	> 100 µM	–	> 100 µM	> 100 µM	> 100 µM	> 100 µM	> 100 µM	> 100 µM	–	> 100 µM	–	–	–	–	–	–	–	–	–
COc1ccc([C@@H]2ON(C)[C@H]3CN(C)C(=O)[C@@H]23)cc1	> 100 µM	> 100 µM	> 100 µM	–	> 100 µM	> 100 µM	–	> 100 µM	–	> 100 µM	–	–	–	–	–	–	–	–	–
O=C1c2c(c3c4ccccc4[nH]c3c3ccc4ccccc4c23)C(=O)N1CCN1CCCCC1	–	4.7 µM	15.3 µM	3.01 µM	38.8 µM	3.31 µM	3.26 µM	14.5 µM	–	5.08 µM	0.797 µM	1.72 µM	1.05 µM	1.78 µM	1.95 µM	1.47 µM	–	2.67 µM	1.95 µM
Cc1c2cc[n+](CCN3CCCCC3)cc2c(C)c2c1[nH]c1ccc(O)cc12	3.49 µM	23.3 µM and 11.6 µM	53 µM and 37.4 µM	23.6 µM and 16 µM	46.6 µM and 42 µM	72.2 µM and > 100 µM	34.5 µM	11.5 µM	21.6 µM	34.7 µM	27.4 µM	–	–	1.74 µM	–	3.09 µM	–	4.34 µM	14.3 µM
CCCCCCNC(=O)c1cnc(Cl)cn1	16.6 µM	> 100 µM	–	–	> 100 µM	34.2 µM	28.9 µM	29.6 µM	> 100 µM	32.4 µM	–	–	–	–	–	–	–	–	–
Cc1ccccc1N=Nc1ccc(N=Nc2c(O)ccc3ccccc23)c(C)c1	–	> 100 µM	–	> 100 µM	> 100 µM	> 100 µM	> 100 µM	> 100 µM	> 100 µM	> 100 µM	–	–	–	–	–	–	–	–	–
NC(N)=N/N=C/c1c(-c2ccccc2)nc2n1ccc1nc(-c3ccccc3)c(/C=N/N=C(N)N)n12	–	> 100 µM	–	> 100 µM	> 100 µM	> 100 µM	> 100 µM	> 100 µM	> 100 µM	> 100 µM	–	–	–	–	–	–	–	–	–
O=c1ccc2cc(O)c(O)cc2o1	> 100 µM	> 100 µM	> 100 µM	> 100 µM	> 100 µM	> 100 µM	> 100 µM	> 100 µM	> 100 µM	> 100 µM	–	–	–	–	–	–	–	–	–
